Test results as given in US8119630B2 (Arrow Therapeutics Limited, priority 2002, dated 2012).

What follows are molecules tested on RSV (assay: XTT assay, RSV-infected Vero cells). Conditions: Table 1; Vero cells infected with RSV, m.o.i.≈0.2, 6 days at 33° C.; read-out: XTT IC50.
Format: cell-based, Respiratory Syncytial Virus (RSV)
Experimental: Examples 1 to 74 and 83 to 124 were tested using the following protocol.
The inner 60 wells of 96 well tissue culture plates were seeded with Vero cells at 3×10^4 cells/well (1×10^4 cells/well for toxicity studies) in 100 or 150 μl of medium and incubated at 37° C. overnight or until nearing confluency. For primary screen, 25 μl compounds were added directly to 100 μl medium in single wells to duplicate plates. A third plate was prepared for simultaneous toxicity investigation.
For follow-up investigation, 70 μl of compound in duplicate wells were added directly to culture medium at 3.2× final concentration and ½ log serially diluted down columns of plate. A duplicate plate was prepared for simultaneous toxicity investigation.
Cells were infected with 25 μl RSV to give m.o.i.≈0.2. Some 100 μl of sterile distilled water were added to the outer wells of the plate and incubated at 33° C. for 6 days. Some 0.25 μl/ml PMS were added to stock XTT solution, final conc. […]. Then 25 μl warmed XTT/PMS solution were added to each well and incubated for 5 hours at 37° C. Plates were shaken (DynaTech Vari-Shaker) vigorously for 10 mins and allowed to cool for 15 mins before sealing. Absorbance at 450 nm was measured and data analysed using Microsoft Excel software.
Maximum OD450nm reading (uninfected, untreated control cells) corresponded to 100% inhibition. Minimum OD450nm readings (infected control cells) corresponded to 0% inhibition. Log 10 concentration was plotted against OD450nm and IC50 (Table 1) values were calculated from either reading 50% value from graph or using regression analysis.
COc1ccccc1NC(=O)NC1N=C(c2ccccc2)c2ccccc2NC1=O (stereo not drawn) [Example 68, (2-Methoxy-phenyl)-3-(2-oxo-5-phenyl-2,3-dihydro-1H-benzo[e][1,4]diazepin-3-yl)-urea] gave an IC50 of 1 µM.
Work on CS(=O)(=O)NC1N=C(c2ccccc2)c2cc(Cl)ccc2NC1=O (stereo not drawn) [Example 53, N-(7-Chloro-2-oxo-5-phenyl-2,3-dihydro-1H-benzo[e][1,4]diazepin-3-yl)-methanesulformide] yielded an IC50 of 5 µM.
Work on O=C(NC1N=C(c2ccccc2)c2ccccc2NC1=O)c1cccs1 (stereo not drawn) [Example 14, Thiophene-2-carboxylic acid (2-oxo-5-phenyl-2,3-dihydro-1H-benzo[e][1,4]diazepin-3-yl)-3-amide] yielded an IC50 of 1.5 µM.
COc1ccccc1C(=O)NC1N=C(c2ccccc2)c2ccccc2NC1=O (stereo not drawn) [Example 11, 2-Methoxy N-(2-oxo-5-phenyl-2,3-dihydro-1H-benzo[e][1,4]diazepin-3-yl)-benzamide] showed an IC50 of 0.5 µM.

Same assay, conditions: human respiratory syncytial virus, Vero, 144 h, read-out: XTT IC50 (uM), Table 1; Vero cells infected with RSV, m.o.i.≈0.2, 6 days at 33° C.
CC(=O)NC1N=C(c2ccccc2)c2cc(Cl)ccc2NC1=O (stereo not drawn) [Example 51, N-(7-Chloro-2-oxo-5-phenyl-2,3-dihydro-1H-benzo[e][1,4]diazepin-3-yl)-acetamide] was tested, and the IC50 was 5 µM.
With COc1ccccc1CNC1N=C(c2ccccc2)c2ccccc2NC1=O (stereo not drawn) [Example 45, 3-(2-Methoxy-benzylamino)-5-phenyl-1,3-dihydro-benzo[e][1,4]diazepin-2-one] the IC50 was 20 µM.
O=C(Nc1ccc(F)cc1)NC1N=C(c2ccccc2)c2ccccc2NC1=O (stereo not drawn) [Example 74, 1-(4-Fluoro-phenyl)-3-(2-oxo-5-phenyl-2,3-dihydro-1H-benzo[e][1,4]diazepin-3-yl)-urea] gave an IC50 of 1.5 µM.
O=C1Nc2ccccc2C(c2ccccc2)=NC1NS(=O)(=O)c1ccccc1F (stereo not drawn) [Example 41, 2-Fluoro-N-(2-oxo-5-phenyl-2,3-dihydro-1H-benzo[e][1,4]diazepin-3-yl)-benzenesulfonamide] gave an IC50 of 10 µM.
Work on O=C(Nc1ccccc1F)N[C@H]1N=C(c2ccccc2)c2ccccc2NC1=O [Example 73b, (S)-1-(2-Fluoro-phenyl)-3-(2-oxo-5-phenyl-2,3-dihydro-1H-benzo[e][1,4]diazepin-3-yl)-urea] yielded an IC50 of 0.7 µM.
O=C(NC1N=C(c2ccccc2)c2ccccc2NC1=O)c1ccccc1Cl (stereo not drawn) [Example 25, 2-Chloro-N-(2-oxo-5-phenyl-2,3-dihydro-1H-benzo[e][1,4]diazepin-3-yl)-benzamide] showed an IC50 of 2 µM.
O=C(NC1N=C(c2ccccc2)c2ccccc2NC1=O)c1csc2ccccc12 (stereo not drawn) [Example 28, Benzo[b]thiophene-3-carboxylic acid (2-oxo-5-phenyl-2,3-dihydro-1H-benzo[e][1,4]diazepin-3-yl)-amide] showed an IC50 of 5 µM.
Molecule O=C(NC1N=C(c2ccccc2)c2cc(Cl)ccc2NC1=O)c1cccs1 (stereo not drawn) [Example 55, Thiophene-2-carboxylic acid (7-chloro-2-oxo-5-phenyl-2,3-dihydro-1H-benzo[e][1,4]diazepin-3-yl)-amide] has an IC50 of 3 µM.
For O=C(NC1N=C(c2ccccc2)c2ccccc2NC1=O)c1cc2ccccc2s1 (stereo not drawn) [Example 31, Benzo[b]thiophene-2-carboxylic acid (2-oxo-5-phenyl-2,3-dihydro-1H-benzo[e][1,4]diazepin-3-yl)-amide], the IC50 was 5 µM.
In the case of O=C(Cc1ccccc1C(F)(F)F)NC1N=C(c2ccccc2)c2ccccc2NC1=O (stereo not drawn) [Example 65, N-(2-Oxo-5-phenyl-2,3-dihydro-1H-benzo[e][1,4]diazepin-3-yl)-2-(2-trifluoromethyl-phenyl)-acetamide], the IC50 is reported as 2 µM.
O=C(Nc1ccccc1F)NC1N=C(c2ccccc2)c2ccccc2NC1=O (stereo not drawn) [Example 73a, 1-(2-Fluoro-phenyl)-3-(2-oxo-5-phenyl-2,3-dihydro-1H-benzo[e][1,4]diazepin-3-yl)-urea] was tested, and the IC50 was 1 µM.
For COc1cc([N+](=O)[O-])ccc1C(=O)N[C@H]1N=C(c2ccccc2)c2ccccc2NC1=O [Example 27b, (S)-2-Methoxy-4-nitro-N-(2-oxo-5-phenyl-2,3-dihydro-1H-benzo[e][1,4]diazepin-3-yl)-benzamide], the IC50 was < 0.3 µM.
COc1ccccc1CC(=O)NC1N=C(c2ccccc2)c2ccccc2NC1=O (stereo not drawn) [Example 60, 2-(2-Methoxy-phenyl)-N-(2-oxo-5-phenyl-2,3-dihydro-1H-benzo[e][1,4]diazepin-3-yl)-acetamide] showed an IC50 of 5 µM.
O=C(NC1N=C(c2ccccc2)c2ccccc2NC1=O)c1ccco1 (stereo not drawn) [Example 15, Furan-2-carboxylic acid (2-oxo-5-phenyl-2,3-dihydro-1H-benzo[e][1,4]diazepin-3-yl)-amide] was tested, and the IC50 was 1 µM.
In the case of O=C(NC1N=C(c2ccccc2)c2ccccc2NC1=O)c1ccncc1 (stereo not drawn) [Example 33, N-(2-Oxo-5-phenyl-2,3-dihydro-1H-benzo[e][1,4]diazepin-3-yl)-isonicotinamide], the IC50 is reported as 2.5 µM.
In the case of O=C(Nc1ccccc1[N+](=O)[O-])NC1N=C(c2ccccc2)c2ccccc2NC1=O (stereo not drawn) [Example 69, 1-(2-Nitro-phenyl)-3-(2-oxo-5-phenyl-2,3-dihydro-1H-benzo[e][1,4]diazepin-3-yl)-urea], the IC50 is reported as 1.5 µM.
Molecule O=C(NC1N=C(c2ccccc2)c2ccccc2NC1=O)c1ccccc1C(F)(F)F (stereo not drawn) [Example 22, N-(2-oxo-5-phenyl-2,3-dihydro-1H-benzo[e][1,4]diazepin-3-yl)-2-trifluoromethyl-benzamide] has an IC50 of 4 µM.
Work on O=C(NC1N=C(c2ccccc2)c2ccccc2NC1=O)c1ccc(Cl)c(Cl)c1 (stereo not drawn) [Example 21, 3,4-Dichloro-N-(2-oxo-5-phenyl-2,3-dihydro-1H-benzo[e][1,4]diazepin-3-yl)-benzamide] yielded an IC50 of 6 µM.
O=C(NC1N=C(c2ccccc2)c2ccccc2NC1=O)c1ccccc1[N+](=O)[O-] (stereo not drawn) [Example 26, 2-Nitro-N-(2-oxo-5-phenyl-2,3-dihydro-1H-benzo[e][1,4]diazepin-3-yl)-benzamide] showed an IC50 of 2 µM.
For O=C(NC1N=C(c2ccccc2)c2ccccc2NC1=O)c1ccc2c(c1)CCO2 (stereo not drawn) [Example 29, 2,3-Dihydro-benzofuran-5-carboxylic acid (2-oxo-5-phenyl-2,3-dihydro-1H-benzo[e][1,4]diazepin-3-yl)-amide], the IC50 was 2 µM.
For O=C(NC1N=C(c2ccccc2)c2ccccc2NC1=O)c1ccc(Br)cc1 (stereo not drawn) [Example 23, 4-Bromo-N-(2-oxo-5-phenyl-2,3-dihydro-1H-benzo[e][1,4]diazepin-3-yl)-benzamide], the IC50 was 5 µM.
For O=C(Cc1ccc([N+](=O)[O-])cc1)NC1N=C(c2ccccc2)c2ccccc2NC1=O (stereo not drawn) [Example 63, 2-(4-Nitro-phenyl)-N-(2-oxo-5-phenyl-2,3-dihydro-1H-benzo[e][1,4]diazepin-3-yl)-acetamide], the IC50 was 1.7 µM.
Molecule O=C(NC1N=C(c2ccccc2)c2ccccc2NC1=O)c1cccc(C(F)(F)F)c1 (stereo not drawn) [Example 12, N-(2-Oxo-5-phenyl-2,3-dihydro-1H-benzo[e][1,4]diazepin-3-yl)-3-trifluoromethyl-benzamide] has an IC50 of 2.5 µM.
With CC(C)C(=O)NC1N=C(c2ccccc2)c2ccccc2NC1=O (stereo not drawn) [Example 5, N-(2-Oxo-5-phenyl-2,3-dihydro-1H-benzo[e][1,4]diazepin-3-yl)-isobutyramide] the IC50 was 2.5 µM.
With O=C1Nc2ccccc2C(c2ccccc2)=NC1NCc1ccco1 (stereo not drawn) [Example 50, 3-[(Furan-2-ylmethyl)-amino]-5-phenyl-1,3-dihydro-benzo[e][1,4]diazepin-2-one] the IC50 was 50 µM.
With CS(=O)(=O)NC1N=C(c2ccccc2)c2ccccc2NC1=O (stereo not drawn) [Example 35, N-(2-Oxo-5-phenyl-2,3-dihydro-1H-benzo[e][1,4]diazepin-3-yl)methanesulfonamide] the IC50 was 6 µM.
In the case of Cc1ccc(NC(=O)NC2N=C(c3ccccc3)c3ccccc3NC2=O)cc1 (stereo not drawn) [Example 72, 1-(2-oxo-5-phenyl-2,3-dihydro-1H-benzo[e][1,4]diazepin-3-yl)-3-p-tolyl-urea], the IC50 is reported as 1.5 µM.
For CCN(CC)C(=O)NC1N=C(c2ccccc2)c2ccccc2NC1=O (stereo not drawn) [Example 2, 1,1-Diethyl-3-(2-oxo-5-phenyl-2,3-dihydro 1H-benzo[e][1,4]diazepin-3-yl)-urea], the IC50 was 4 µM.
Molecule CN1CCN(C(=O)NC2N=C(c3ccccc3)c3ccccc3NC2=O)CC1 (stereo not drawn) [Example 20, 4-Methyl-piperazine-1-carboxylic acid-(2-oxo-5-phenyl-2,3-dihydro-1H-benzo[e][1,4]diazepin-3-yl)-amide] has an IC50 of 25 µM.
Molecule O=C(Cc1cccc(C(F)(F)F)c1)NC1N=C(c2ccccc2)c2ccccc2NC1=O (stereo not drawn) [Example 66, N-(2-Oxo-5-phenyl-2,3-dihydro-1H-benzo[e][1,4]diazepin-3-yl)-2-(3-trifluoromethyl-phenyl)-acetamide] has an IC50 of 1.5 µM.
CCC(=O)NC1N=C(c2ccccc2)c2ccccc2NC1=O (stereo not drawn) [Example 3, N-(2-Oxo-5-phenyl-2,3-dihydro-1H-benzo[e][1,4]diazepin-3-yl)-propionamide] was tested, and the IC50 was 2.5 µM.
Work on O=C(NC1N=C(c2ccccc2)c2ccccc2NC1=O)C1CCCC1 (stereo not drawn) [Example 7, Cyclopentanecarboxylic acid (2-oxo-5-phenyl-2,3-dihydro-1H-benzo[e][1,4]diazepin-3-yl)-amide] yielded an IC50 of 2 µM.
